Experimental data reported in PMC10436550, “Subacute toxicity evaluations of LPM3480392 in rats, a full µ-opioid receptor biased agonist” (Frontiers in Pharmacology, 2023).

System: Sprague Dawley (SD) rats
Assay: Organ weight and ratios, 4-week subacute toxicity study
Assay type: in vivo, rat
Settings: male rats
Method: Complete gross necropsies were conducted on all surviving animals at the end of treatment (the day after the last dosing) and recovery periods. The following selected organs were weighed and evaluated in terms of organ/body or organ/brain weight ratios: brain, kidneys, adrenals, testes, ovaries, uterus, epididymides, thymus, spleen, heart and liver. Paired organs were weighed together. Organ-to-body weight ratio = Organ weight(g)/Body weight(g) × 100%, and Organ-to-brain weight ratio = Organ weight(g)/Brain weight(g) × 100%.

[1] = 0.6 mg/kg/day, End of recovery phase
[2] = 1.2 mg/kg/day, End of dosing phase
[3] = 1.2 mg/kg/day, End of recovery phase
[4] = 2.4 mg/kg/day, End of dosing phase
[5] = 2.4 mg/kg/day, End of recovery phase

`Fc1ccc([C@]2(CCNCc3cccc(Cl)c3)CCO[C@]3(CCOC3)C2)nc1` [LPM3480392] was tested. Which “Organ weight, Heart” value [1] did it give?
Its value is 1.431 ± 0.112 g.

And the “Organ weight, Liver” value [1]?
Its value is 9.943 ± 1.685 g.

And the “Organ weight, Spleen” value [1]?
The value was 0.774 ± 0.108 g.

And the “Organ weight, Thymus” value [1]?
The value was 0.470 ± 0.076 g.

What about the “Organ-to-body weight ratio, Adrenal gland” value [1] of the same molecule?
The value was 0.013 ± 0.002%.

What about the “Organ-to-body weight ratio, Brain” value [1] of the same molecule?
The value was 0.534 ± 0.040%.

What about the “Organ-to-body weight ratio, Epididymis” value [1] of the same molecule?
The value was 0.338 ± 0.036%.

And the “Organ-to-body weight ratio, Heart” value [1]?
The value was 0.337 ± 0.020%.

What about the “Organ-to-body weight ratio, Liver” value [1] of the same molecule?
Its value is 2.327 ± 0.250%.

And the “Organ-to-body weight ratio, Spleen” value [1]?
The value was 0.182 ± 0.018%.

What about the “Organ-to-body weight ratio, Thymus” value [1] of the same molecule?
The value was 0.110 ± 0.016%.

And the “Organ-to-brain weight ratio, Adrenal gland” value [1]?
Its value is 2.52 ± 0.37%.

What about the “Organ-to-brain weight ratio, Epididymis” value [1] of the same molecule?
The value was 63.42 ± 6.91%.

And the “Organ-to-brain weight ratio, Heart” value [1]?
The value was 63.29 ± 4.73%.

What about the “Organ-to-brain weight ratio, Liver” value [1] of the same molecule?
The value was 441.01 ± 85.94%.

And the “Organ-to-brain weight ratio, Spleen” value [1]?
The value was 34.27 ± 5.33%.

What about the “Organ-to-brain weight ratio, Thymus” value [1] of the same molecule?
Its value is 20.83 ± 3.66%.

What about the “Terminal BW” value [1] of the same molecule?
Its value is 425.2 ± 26.4 g.

And the “Organ weight, Adrenal gland” value [2]?
Its value is 0.052 ± 0.007 g.

And the “Organ weight, Brain” value [2]?
The value was 2.015 ± 0.137 g.

And the “Organ weight, Epididymis” value [2]?
The value was 1.020 ± 0.040 g.

What about the “Organ weight, Heart” value [2] of the same molecule?
Its value is 1.199 ± 0.140 g.

And the “Organ weight, Liver” value [2]?
The value was 7.643 ± 0.801 g.

What about the “Organ weight, Spleen” value [2] of the same molecule?
The value was 0.703 ± 0.103 g.

What about the “Organ weight, Thymus” value [2] of the same molecule?
Its value is 0.425 ± 0.115 g.

And the “Organ-to-body weight ratio, Adrenal gland” value [2]?
The value was 0.017 ± 0.002%.

And the “Organ-to-body weight ratio, Brain” value [2]?
Its value is 0.655 ± 0.040%.

What about the “Organ-to-body weight ratio, Epididymis” value [2] of the same molecule?
Its value is 0.332 ± 0.030%.

What about the “Organ-to-body weight ratio, Heart” value [2] of the same molecule?
The value was 0.388 ± 0.025 %.

What about the “Organ-to-body weight ratio, Liver” value [2] of the same molecule?
Its value is 2.473 ± 0.100%.

What about the “Organ-to-body weight ratio, Spleen” value [2] of the same molecule?
The value was 0.227 ± 0.026%.

What about the “Organ-to-body weight ratio, Thymus” value [2] of the same molecule?
Its value is 0.136 ± 0.028%.

And the “Organ-to-brain weight ratio, Adrenal gland” value [2]?
Its value is 2.59 ± 0.37%.

What about the “Organ-to-brain weight ratio, Epididymis” value [2] of the same molecule?
The value was 50.88 ± 4.79%.

What about the “Organ-to-brain weight ratio, Heart” value [2] of the same molecule?
The value was 59.48 ± 5.54%.

What about the “Organ-to-brain weight ratio, Liver” value [2] of the same molecule?
Its value is 378.95 ± 25.83%.

And the “Organ-to-brain weight ratio, Spleen” value [2]?
The value was 35.01 ± 5.62%.

And the “Organ-to-brain weight ratio, Thymus” value [2]?
The value was 20.87 ± 4.42%.

What about the “Terminal BW” value [2] of the same molecule?
The value was 308.5 ± 22.5 g.

And the “Organ weight, Adrenal gland” value [3]?
The value was 0.060 ± 0.010 g.

And the “Organ weight, Brain” value [3]?
The value was 2.177 ± 0.033 g.

What about the “Organ weight, Epididymis” value [3] of the same molecule?
Its value is 1.351 ± 0.094 g.

And the “Organ weight, Heart” value [3]?
Its value is 1.483 ± 0.081 g.

And the “Organ weight, Liver” value [3]?
The value was 10.423 ± 1.077 g.

And the “Organ weight, Spleen” value [3]?
The value was 0.814 ± 0.089 g.

What about the “Organ weight, Thymus” value [3] of the same molecule?
Its value is 0.393 ± 0.042 g.

What about the “Organ-to-body weight ratio, Adrenal gland” value [3] of the same molecule?
Its value is 0.014 ± 0.003%.

And the “Organ-to-body weight ratio, Brain” value [3]?
The value was 0.514 ± 0.031%.

And the “Organ-to-body weight ratio, Epididymis” value [3]?
Its value is 0.318 ± 0.010%.

And the “Organ-to-body weight ratio, Heart” value [3]?
The value was 0.349 ± 0.017%.

What about the “Organ-to-body weight ratio, Liver” value [3] of the same molecule?
The value was 2.451 ± 0.149%.

What about the “Organ-to-body weight ratio, Spleen” value [3] of the same molecule?
Its value is 0.192 ± 0.022%.

And the “Organ-to-body weight ratio, Thymus” value [3]?
Its value is 0.093 ± 0.013%.

And the “Organ-to-brain weight ratio, Adrenal gland” value [3]?
Its value is 2.74 ± 0.50%.

And the “Organ-to-brain weight ratio, Epididymis” value [3]?
Its value is 62.05 ± 4.34%.

What about the “Organ-to-brain weight ratio, Heart” value [3] of the same molecule?
The value was 68.08 ± 3.40%.

And the “Organ-to-brain weight ratio, Liver” value [3]?
Its value is 478.76 ± 49.84%.

What about the “Organ-to-brain weight ratio, Spleen” value [3] of the same molecule?
The value was 37.41 ± 4.09%.

And the “Organ-to-brain weight ratio, Thymus” value [3]?
Its value is 18.03 ± 1.83%.

And the “Terminal BW” value [3]?
Its value is 424.6 ± 23.0 g.

And the “Organ weight, Adrenal gland” value [4]?
The value was 0.052 ± 0.004 g.

What about the “Organ weight, Brain” value [4] of the same molecule?
The value was 2.031 ± 0.066 g.

And the “Organ weight, Epididymis” value [4]?
Its value is 0.904 ± 0.104 g.

And the “Organ weight, Heart” value [4]?
The value was 1.172 ± 0.071 g.

And the “Organ weight, Liver” value [4]?
The value was 7.348 ± 0.497 g.

What about the “Organ weight, Spleen” value [4] of the same molecule?
Its value is 0.686 ± 0.129 g.

What about the “Organ weight, Thymus” value [4] of the same molecule?
Its value is 0.394 ± 0.075 g.

What about the “Organ-to-body weight ratio, Adrenal gland” value [4] of the same molecule?
Its value is 0.018 ± 0.002%.

What about the “Organ-to-body weight ratio, Brain” value [4] of the same molecule?
The value was 0.689 ± 0.061%.

And the “Organ-to-body weight ratio, Epididymis” value [4]?
The value was 0.305 ± 0.028%.

What about the “Organ-to-body weight ratio, Heart” value [4] of the same molecule?
Its value is 0.397 ± 0.037 %.

And the “Organ-to-body weight ratio, Liver” value [4]?
Its value is 2.487 ± 0.195%.

What about the “Organ-to-body weight ratio, Spleen” value [4] of the same molecule?
The value was 0.231 ± 0.033%.

What about the “Organ-to-body weight ratio, Thymus” value [4] of the same molecule?
The value was 0.132 ± 0.019%.

And the “Organ-to-brain weight ratio, Adrenal gland” value [4]?
Its value is 2.59 ± 0.24%.

And the “Organ-to-brain weight ratio, Epididymis” value [4]?
Its value is 44.58 ± 5.64 %.

And the “Organ-to-brain weight ratio, Heart” value [4]?
Its value is 57.77 ± 3.83%.

And the “Organ-to-brain weight ratio, Liver” value [4]?
Its value is 361.66 ± 16.84 %.

What about the “Organ-to-brain weight ratio, Spleen” value [4] of the same molecule?
Its value is 33.71 ± 5.76%.

What about the “Organ-to-brain weight ratio, Thymus” value [4] of the same molecule?
The value was 19.36 ± 3.42%.

What about the “Terminal BW” value [4] of the same molecule?
Its value is 296.6 ± 24.2 g.

And the “Organ weight, Adrenal gland” value [5]?
Its value is 0.055 ± 0.009 g.

And the “Organ weight, Brain” value [5]?
The value was 2.185 ± 0.147 g.

And the “Organ weight, Epididymis” value [5]?
Its value is 1.239 ± 0.114 g.

What about the “Organ weight, Heart” value [5] of the same molecule?
Its value is 1.360 ± 0.262 g.

And the “Organ weight, Liver” value [5]?
Its value is 9.451 ± 1.196 g.

What about the “Organ weight, Spleen” value [5] of the same molecule?
The value was 0.775 ± 0.172 g.

What about the “Organ weight, Thymus” value [5] of the same molecule?
Its value is 0.386 ± 0.038 g.

What about the “Organ-to-body weight ratio, Adrenal gland” value [5] of the same molecule?
Its value is 0.014 ± 0.002%.

And the “Organ-to-body weight ratio, Brain” value [5]?
The value was 0.559 ± 0.076%.

What about the “Organ-to-body weight ratio, Epididymis” value [5] of the same molecule?
The value was 0.315 ± 0.026%.

What about the “Organ-to-body weight ratio, Heart” value [5] of the same molecule?
Its value is 0.342 ± 0.024%.

What about the “Organ-to-body weight ratio, Liver” value [5] of the same molecule?
The value was 2.391 ± 0.064%.

What about the “Organ-to-body weight ratio, Spleen” value [5] of the same molecule?
Its value is 0.194 ± 0.023%.

What about the “Organ-to-body weight ratio, Thymus” value [5] of the same molecule?
The value was 0.099 ± 0.013%.

What about the “Organ-to-brain weight ratio, Adrenal gland” value [5] of the same molecule?
Its value is 2.55 ± 0.51%.

What about the “Organ-to-brain weight ratio, Epididymis” value [5] of the same molecule?
The value was 56.82 ± 5.54%.

What about the “Organ-to-brain weight ratio, Heart” value [5] of the same molecule?
The value was 62.11 ± 10.37%.

What about the “Organ-to-brain weight ratio, Liver” value [5] of the same molecule?
Its value is 432.91 ± 49.50%.

And the “Organ-to-brain weight ratio, Spleen” value [5]?
The value was 35.31 ± 6.72%.

And the “Organ-to-brain weight ratio, Thymus” value [5]?
Its value is 17.77 ± 2.29%.

And the “Terminal BW” value [5]?
The value was 395.7 ± 53.7 g.
